Legend:
Type in all cases: cell-based
Conditions in all cases: 6 hours
[1] = test system: 12 target nucleic acids in MCF-7 cells; test: Change in expression level of 12 target nucleic acids across cell treatments (Flow-Thru Chip and TAQMAN)
From the text: (§1) MCF-7 cells are estrogen responsive breast adenocarcinoma cells that have been used previously as a model system for evaluation of breast cancer drugs. Initial studies have examined the effect of an anti-estrogen, tamoxifen, on the estradiol response of MCF-7 cells. Estradiol stimulates cell proliferation through the G1 phase in synchronized cell growth studies. Tamoxifen treatment of cells inhibits the induction of several genes that occur upon estradiol treatment by blocking estrogen receptor cofactors required for transcription. The Flow-Thru Chip™has been used as an analysis platform for a set of genes reported in the literature as differentially regulated in the MCF-7 system under estradiol and tamoxifen treatment. TAQMAN® PCR was performed to measure the changes in expression levels for each of the monitored genes across the treatments.
(§2) The experimental protocols for estradiol and tamoxifen treatment have been described in detail elsewhere (Wosikowski et al., Int. J. Cancer 53:290-297 (1993)). In this study MCF-7 (ATTC, Manassas, Va.) cells were maintained in MEM alpha medium supplemented with 10% heat-inactivated fetal bovine serum, Penicillin-Streptomycin and 10 μg/ml bovine insulin (complete medium) (Life Technologies, Gaithersburg, Md.). […] The purity and integrity of the total RNA was assessed by the 260/280 absorbance and the 28s/18s RNA ratios.
(§3) Analysis of genes under test by the Flow-Thru Chip™ required amplification from the total RNA. […] The appropriate number of cycles for each grouping of target nucleic acids was determined empirically to assure that all targets in the group were in the linear dynamic range of the chip and had not reached primer limitation in the PCR amplification. […]
(§4) The ability to multiplex target nucleic acids under study was confirmed by TAQMAN®, analysis of the singleplex and multiplex amplifications. […] Changes in expression level between samples were determined by comparing the brightness of gene-spots measured for each target nucleic acid relative to a reference target nucleic acid, β-actin. […]

[2] = test system: C-myc; test: Flow-Thru Chip gene expression analysis after multiplex RT-PCR, MCF-7 cells
From the text: as §1, §2, §3, §4

[3] = test system: C-myc; test: TAQMAN PCR gene expression analysis, MCF-7 cells
From the text: as §1, with “The Flow-Thru Chip™has been used as an analysis platform for a set of genes reported in the literature as differentially regulated in the MCF-7 system under estradiol and tamoxifen treatment.” left out
The experimental protocols for estradiol and tamoxifen treatment have been described in detail elsewhere (Wosikowski et al., Int. J. Cancer 53:290-297 (1993)). […] The purity and integrity of the total RNA was assessed by the 260/280 absorbance and the 28s/18s RNA ratios.
as §4

| Compound | effect on expression of the target nucleic acids ([1]; 10 nM 17-beta-estradiol) | C-myc fold up-regulation ([2]; 10 nM 17-beta-estradiol, relative to vehicle control (=1.0), reference β-actin, Flow-Thru Chip) | C-myc fold up-regulation ([3]; 10 nM 17-beta-estradiol, relative to vehicle control (=1.0), reference β-actin, TAQMAN) | effect on estradiol induction of the set of target nucleic acids ([1]; 1 μM tamoxifen added to 10 nM 17-beta-estradiol) | influence on expression of any of the target nucleic acids ([1]; 1 μM tamoxifen alone) | influence on C-myc expression ([2]; 1 μM tamoxifen alone, method not stated) | C-myc fold increase ([2]; 1 μM tamoxifen in conjunction with 10 nM 17-beta-estradiol, Flow-Thru Chip (same by both methods)) | C-myc fold increase ([3]; 1 μM tamoxifen in conjunction with 10 nM 17-beta-estradiol, TAQMAN (same by both methods)) |
| --- | --- | --- | --- | --- | --- | --- | --- | --- |
| C[C@]12CC[C@@H]3c4ccc(O)cc4CC[C@H]3[C@@H]1CC[C@@H]2O [estradiol, 17-beta-estradiol] | induces expression | 23±4 fold | 27±6 fold | – | – | – | – | – |
| CC/C(=C(\c1ccccc1)c1ccc(OCCN(C)C)cc1)c1ccccc1 [tamoxifen] | – | – | – | suppresses the induction | little influence | no influence | roughly 8 fold | roughly 8 fold |

— patent publication US20050095606A1, “Partially double-stranded nucleic acids, methods of making, and use thereof” (priority 2001, published 2005)
